# Measurements as given in PubChem BioAssay (NCI).
#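 In this assay, cells in 96-well plates receive the compound at five concentrations for 48 hours. Endpoints are linearly interpolated between the surrounding concentrations. GI50 is the concentration that inhibits growth by half. Definition used: TGI = concentration required for complete inhibition of growth.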
# Experiments:
# Test in all cases: NCI-60 cell line screen, 48 h
# [1] = test system: SF-539 CNS
# [2] = test system: UACC-257 melanoma
# [3] = test system: A498 renal
# [4] = test system: OVCAR-3 ovarian
# [5] = test system: RPMI-8226 leukemia
# [6] = test system: TK-10 renal
# [7] = test system: NCI-H23 lung
# [8] = test system: K-562 leukemia
# [9] = test system: MOLT-4 leukemia
# [10] = test system: SR leukemia
# [11] = test system: IGROV1 ovarian
# [12] = test system: OVCAR-4 ovarian
# [13] = test system: NCI-H460 lung
# [14] = test system: U251 CNS
# [15] = test system: MALME-3M melanoma
# [16] = test system: CAKI-1 renal
# [17] = test system: UACC-62 melanoma
# [18] = test system: EKVX NSCLC
# [19] = test system: SN12C renal
# [20] = test system: HOP-62 NSCLC
# [21] = test system: HS 578T breast
# [22] = test system: SNB-19 CNS
# [23] = test system: COLO 205 colon
# [24] = test system: SK-MEL-2 melanoma
# [25] = test system: HL-60(TB) leukemia
# [26] = test system: NCI/ADR-RES ovarian
# [27] = test system: DU-145 prostate
# [28] = test system: SK-OV-3 ovarian
# [29] = test system: 786-0 renal
# [30] = test system: SW-620 colon
# [31] = test system: SF-295 CNS
# [32] = test system: T-47D breast
# [33] = test system: SK-MEL-5 melanoma
# [34] = test system: MCF7 breast
# [35] = test system: PC-3 prostate
# [36] = test system: HCT-15 colon
# [37] = test system: HCC-2998 colon
# [38] = test system: RXF 393 renal
# [39] = test system: SK-MEL-28 melanoma
# [40] = test system: MDA-MB-468 breast
# [41] = test system: ACHN renal
# [42] = test system: NCI-H226 lung
# [43] = test system: OVCAR-8 ovarian
# [44] = test system: UO-31 renal
# [45] = test system: MDA-MB-435
# [46] = test system: KM12 colon
# [47] = test system: HOP-92 NSCLC
# [48] = test system: NCI-H522 lung
# [49] = test system: MDA-MB-231 breast
# [50] = test system: SF-268 CNS
# [51] = test system: LOX IMVI melanoma
# [52] = test system: BT-549 breast
# [53] = test system: OVCAR-5 ovarian
# [54] = test system: HT29 colon
# [55] = test system: A549 NSCLC
# [56] = test system: M14 melanoma
# [57] = test system: CCRF-CEM leukemia
# [58] = test system: SNB-75 CNS
structure (smiles),measurement,setting,value
CC1=C2C(=C[C@@](C)(COP(=O)(Oc3ccccc3)Oc3ccccc3)[C@@H]2O)C(=O)[C@@](C)(O)C12CC2,GI50,[1],327 nM
same,TGI,[1],886 nM
same,GI50,[2],792 nM
same,TGI,[2],2310 nM
same,GI50,[3],1150 nM
same,TGI,[3],4090 nM
same,GI50,[4],286 nM
same,TGI,[4],1080 nM
same,GI50,[5],4560 nM
same,TGI,[5],38900 nM
same,GI50,[6],854 nM
same,TGI,[6],3090 nM
same,GI50,[7],158 nM
same,TGI,[7],384 nM
same,GI50,[8],1560 nM
same,TGI,[8],> 69500 nM
same,GI50,[9],439 nM
same,TGI,[9],14600 nM
same,GI50,[10],402 nM
same,TGI,[10],25100 nM
same,GI50,[11],399 nM
same,TGI,[11],1240 nM
same,GI50,[12],355 nM
same,TGI,[12],1470 nM
same,GI50,[13],234 nM
same,TGI,[13],744 nM
same,GI50,[14],249 nM
same,TGI,[14],1360 nM
same,GI50,[15],382 nM
same,TGI,[15],1000 nM
same,GI50,[16],289 nM
same,TGI,[16],2170 nM
same,GI50,[17],312 nM
same,TGI,[17],804 nM
same,GI50,[18],641 nM
same,TGI,[18],1800 nM
same,GI50,[19],521 nM
same,TGI,[19],1550 nM
same,GI50,[20],408 nM
same,TGI,[20],1280 nM
same,GI50,[21],1010 nM
same,TGI,[21],4460 nM
same,GI50,[22],630 nM
same,TGI,[22],4930 nM
same,GI50,[23],530 nM
same,TGI,[23],1200 nM
same,GI50,[24],246 nM
same,TGI,[24],596 nM
same,GI50,[25],213 nM
same,TGI,[25],1280 nM
same,GI50,[26],236 nM
same,TGI,[26],778 nM
same,GI50,[27],332 nM
same,TGI,[27],1340 nM
same,GI50,[28],357 nM
same,TGI,[28],1310 nM
same,GI50,[29],284 nM
same,TGI,[29],857 nM
same,GI50,[30],1700 nM
same,TGI,[30],18300 nM
same,GI50,[31],294 nM
same,TGI,[31],1230 nM
same,GI50,[32],946 nM
same,TGI,[32],5190 nM
same,GI50,[33],219 nM
same,TGI,[33],609 nM
same,GI50,[34],141 nM
same,TGI,[34],4690 nM
same,GI50,[35],397 nM
same,TGI,[35],2340 nM
same,GI50,[36],208 nM
same,TGI,[36],875 nM
same,GI50,[37],216 nM
same,TGI,[37],639 nM
same,GI50,[38],188 nM
same,TGI,[38],493 nM
same,GI50,[39],681 nM
same,TGI,[39],1690 nM
same,GI50,[40],147 nM
same,TGI,[40],503 nM
same,GI50,[41],232 nM
same,TGI,[41],686 nM
same,GI50,[42],723 nM
same,TGI,[42],3840 nM
same,GI50,[43],286 nM
same,TGI,[43],1090 nM
same,GI50,[44],460 nM
same,TGI,[44],1270 nM
same,GI50,[45],637 nM
same,TGI,[45],2060 nM
same,GI50,[46],628 nM
same,TGI,[46],5820 nM
same,GI50,[47],574 nM
same,TGI,[47],1580 nM
same,GI50,[48],223 nM
same,TGI,[48],655 nM
same,GI50,[49],351 nM
same,TGI,[49],1030 nM
same,GI50,[50],350 nM
same,TGI,[50],1500 nM
same,GI50,[51],218 nM
same,TGI,[51],703 nM
same,GI50,[52],211 nM
same,TGI,[52],614 nM
same,GI50,[53],359 nM
same,TGI,[53],1340 nM
same,GI50,[54],201 nM
same,TGI,[54],705 nM
same,GI50,[55],781 nM
same,TGI,[55],3290 nM
same,GI50,[56],551 nM
same,TGI,[56],1310 nM
same,GI50,[57],1880 nM
same,TGI,[57],> 39800 nM
same,GI50,[58],477 nM
same,TGI,[58],1270 nM
